Measured values published in US7101878B1 (Agouron Pharmaceuticals, Inc., priority 1998, dated 2006).
Where two headings read alike, the source gives them in different places.

Target: T1, human GnRH receptor (Homo sapiens, UniProt P30968)
T1 construct: expressed in transfected cells; host or cells: HEK 293 (hGnRH-R/293, from Dr. Stuart Sealfon)
T1 sequence (P30968 1-328): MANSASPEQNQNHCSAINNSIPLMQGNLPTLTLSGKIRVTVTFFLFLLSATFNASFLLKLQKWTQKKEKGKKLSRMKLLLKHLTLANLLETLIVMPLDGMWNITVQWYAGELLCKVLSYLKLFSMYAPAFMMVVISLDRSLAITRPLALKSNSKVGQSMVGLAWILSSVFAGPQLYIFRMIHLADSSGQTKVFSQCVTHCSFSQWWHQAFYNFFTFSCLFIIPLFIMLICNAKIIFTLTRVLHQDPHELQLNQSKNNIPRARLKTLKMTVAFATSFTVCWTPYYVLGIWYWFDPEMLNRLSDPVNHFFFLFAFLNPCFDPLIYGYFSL
Assay: Radioligand binding, 125I-GnRH-A displacement, membranes of HEK 293 cells with human GnRH receptor
Conditions: for remaining activity at 10 µM / remaining activity at 1 µM: substrate remaining, closer to zero = closer to 100% inhibition; for remaining activity at 10 µM: 10 uM compound, read-out: S%R 10 uM hGnRHR; for IC50: read-out: hGnRH IC50; for remaining activity at 1 µM: 1 uM compound, read-out: S%R 1 uM hGnRHR
Summary of the method: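 Bound tracer was separated by filtration through polyethyleneimine-soaked GF/C filters and counted by liquid scintillation. IC50 from curve fitting; other species were tested under the same conditions.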

[1] = 1 uM, read-out: % Inhib. @ 1 uM hGnRH
[2] = 1 h, repeat of % Inhib. at 1 uM, read-out: Repeats @ 1 uM hGnRH

Row | inhibition at 1 µM [1] [%] | inhibition at 1 µM [2] [%] | SMILES | further results
1 | -21 | -23 | Cc1cc2c(cc1Cc1ccc(C(=O)NCc3cccc4c3Cc3ccccc3-4)o1)C(C)(C)CCC2(C)C | 
2 | -20 | -21 | Cc1cc2c(cc1Cc1ccc(C(=O)N3CCN(c4ccc(C(F)(F)F)cc4[N+](=O)[O-])CC3)o1)C(C)(C)CCC2(C)C | 
3 | -11 | -8 | Cc1cc2c(cc1Cc1ccc(C(=O)NCCc3ccccc3Oc3ccccc3)o1)C(C)(C)CCC2(C)C [drawing 1040] | 
4 | 22 | 25 | Cc1cc2c(cc1Cc1ccc(C(=O)N3CCN(c4nccc(NCC5CCCO5)n4)CC3)o1)C(C)(C)CCC2(C)C (stereo not drawn) | 
5 | -6 | 14 | COc1ccc(OC)c(C(O)C(C)NC(=O)c2ccc(Cc3cc4c(cc3C)C(C)(C)CCC4(C)C)o2)c1 (stereo not drawn) | 
6 |  |  | Cc1cc2c(cc1Cc1ccc(C(=O)Nc3ccc(O)c([N+](=O)[O-])c3)o1)C(C)(C)CCC2(C)C [Compound 371] | remaining activity at 10 µM (1 h): 55%
7 | 55 | 60 | Cc1cc2c(cc1Cc1ccc(C(=O)NCc3ccc(F)c(F)c3)o1)C(C)(C)CCC2(C)C [drawing 1030] | 
8 | -10 | -13 | Cc1cc2c(cc1Cc1ccc(C(=O)N(C)C(C)C(O)c3ccc(O)cc3)o1)C(C)(C)CCC2(C)C (stereo not drawn) | 
9 | 43 | 48 | Cc1cc2c(cc1Cc1ccc(C(=O)NC(C#N)c3ccccc3)o1)C(C)(C)CCC2(C)C (stereo not drawn) [drawing 1233] | 
10 |  |  | COc1cc(OC)c(NC(=O)c2ccc(Cc3cc(OC)c(O)cc3OC)o2)c(OC)c1 [Compound 227] | IC50: > 10000 nM
11 | -22 | -4 | Cc1cc2c(cc1Cc1ccc(C(=O)N(CCC3CCCN3C)Cc3ccc(Cl)cc3)o1)C(C)(C)CCC2(C)C (stereo not drawn) | 
12 | 15 | 16 | CCOC(=O)N1CCC(NC(=O)c2ccc(Cc3cc4c(cc3C)C(C)(C)CCC4(C)C)o2)CC1 | 
13 |  |  | Cc1cc2c(cc1Cc1ccc(C(=O)NCc3cccc(CNc4ncnc5[nH]ccc45)c3)o1)C(C)(C)CCC2(C)C [Compound 180] | IC50: 350 nM
14 | 13 | 19 | Cc1cc2c(cc1Cc1ccc(C(=O)NC(Cc3ccccc3)c3ccccc3)o1)C(C)(C)CCC2(C)C (stereo not drawn) | 
15 |  |  | Cc1cc2c(cc1Cc1ccc(C(=O)NC[C@@H]3CCCO3)o1)C(C)(C)CCC2(C)C [Compound 58] | IC50: 205 nM
16 |  |  | CC(=O)c1cccc(NC(=O)c2ccc(Cc3cc4c(cc3C)C(C)(C)CCC4(C)C)o2)c1 [Compound 392] | remaining activity at 10 µM (1 h): 0%
17 |  |  | Cc1cc2c(cc1Cc1ccc(C(=O)NCCc3ccccc3Cl)o1)C(C)(C)CCC2(C)C [Compound 55] | IC50: 570 nM
18 |  |  | Cc1cc2c(cc1Cc1ccc(C(=O)Nc3ccc4c(c3)OCO4)o1)C(C)(C)CCC2(C)C [Compound 367] | remaining activity at 10 µM (1 h): 15%
19 |  |  | Cc1cc2c(cc1Cc1ccc(C(=O)Nc3ccccc3)o1)C(C)(C)CCC2(C)C [Compound 384] | remaining activity at 10 µM (1 h): 21%
20 | 61 | 71 | Cc1cc2c(cc1Cc1ccc(C(=O)NCc3cccc4ccccc34)o1)C(C)(C)CCC2(C)C [drawing 1120] | 

Row | inhibition at 1 µM [1] [%] | inhibition at 1 µM [2] [%] | SMILES | further results
21 |  |  | Cc1cc2c(cc1Cc1ccc(C(=O)NCC(O)c3ccccc3)o1)C(C)(C)CCC2(C)C (stereo not drawn) [Compound 444] | remaining activity at 1 µM (1 h): 32%
22 | 10 | 9 | Cc1cc2c(cc1Cc1ccc(C(=O)N(C)CCc3ccccc3)o1)C(C)(C)CCC2(C)C | 
23 |  |  | Cc1cc2c(cc1Cc1ccc(C(=O)Nn3c(O)nnc3-c3ccncc3)o1)C(C)(C)CCC2(C)C | inhibition at 10 µM (repeat, read-out: Repeats @ 10 uM hGnRH (% inhib.)): -28%; inhibition at 10 µM (read-out: % inhib. @ 10 uM hGnRH): -17%
24 | 48 | 55 | CCOc1ccccc1CNC(=O)c1ccc(Cc2cc3c(cc2C)C(C)(C)CCC3(C)C)o1 [drawing 1096] | 
25 | 16 | 22 | Cc1cc2c(cc1Cc1ccc(C(=O)NCC(C)(c3ccccc3)c3ccccc3)o1)C(C)(C)CCC2(C)C | 
26 |  |  | COc1ccc(OC)c(Cc2ccc(C(=O)Nc3c(OC)cccc3OC)o2)c1 [Compound 202] | IC50: 1420 nM
27 | -10 | 13 | COc1cc(OC)c(CNC(=O)c2ccc(Cc3cc4c(cc3C)C(C)(C)CCC4(C)C)o2)c(OC)c1 [drawing 1094] | 
28 | 17 | 28 | Cc1cc2c(cc1Cc1ccc(C(=O)NCCCC(=O)NC(c3ccccc3)c3ccccc3)o1)C(C)(C)CCC2(C)C | 
29 |  |  | CNC(=O)c1ccc(Cc2cc3c(cc2C)C(C)(C)CCC3(C)C)o1 [Compound 37] | IC50: 2100 nM
30 |  |  | Cc1cc2c(cc1Cc1ccc(C(=O)NCCCCNc3nccc(NCC4CCCO4)n3)o1)C(C)(C)CCC2(C)C (stereo not drawn) [Compound 69] | IC50: 1410 nM
31 | 82 | 85 | Cc1cc2c(cc1Cc1ccc(C(=O)NCc3ccccc3)o1)C(C)(C)CCC2(C)C [drawing 1070] | 
32 | -5 | 0 | Cc1cc2c(cc1Cc1ccc(C(=O)NCCNCCN3CCCC3)o1)C(C)(C)CCC2(C)C | 
33 |  |  | COC(=O)N1CCC(C)(C)c2cc(OC)cc(Cc3ccc(C(=O)Nc4c(OC)cc(OC)cc4OC)o3)c21 [Compound 187] | IC50: 9000 nM
34 | -12 | -9 | Cc1cc2c(cc1Cc1ccc(C(=O)N[C@@H](CO)Cc3ccc(O)cc3)o1)C(C)(C)CCC2(C)C | 
35 |  |  | Cc1cc2c(cc1Cc1ccc(C(=O)Nc3c(O)cccc3O)o1)C(C)(C)CCC2(C)C [Compound 189] | IC50: 940 nM
36 | -11 | -29 | Cc1cc2c(cc1Cc1ccc(C(=O)NC3c4ccccc4CC3O)o1)C(C)(C)CCC2(C)C (stereo not drawn) | 
37 |  |  | Cc1cc2c(cc1Cc1ccc(C(=O)NCc3nc4ccccc4[nH]3)o1)C(C)(C)CCC2(C)C [drawing 1060] | % Inhib. @ 1 uM hGnRH (1 uM): 101%; Repeats @ 1 uM hGnRH (repeat of % Inhib. at 1 uM): 99
38 |  |  | Cc1cc2c(cc1Cc1ccc(C(=O)NCc3ccc(N(C)C)cc3)o1)C(C)(C)CCC2(C)C [Compound 447] | remaining activity at 1 µM (1 h): 18%
39 |  |  | COC(=O)CNC(=O)c1ccc(Cc2cc3c(cc2C)C(C)(C)CCC3(C)C)o1 [Compound 164] | IC50: 1970 nM
40 |  |  | Cc1cc2c(cc1Cc1ccc(C(=O)NC[C@H]3CC[C@H](CNc4ccnc(NC[C@H]5CCCO5)n4)CC3)o1)C(C)(C)CCC2(C)C [Compound 178] | IC50: 185 nM

Row | inhibition at 1 µM [1] [%] | inhibition at 1 µM [2] [%] | SMILES | further results
41 |  |  | COC(=O)c1cc(C)nc(NCc2cccc(CNC(=O)c3ccc(Cc4cc5c(cc4C)C(C)(C)CCC5(C)C)o3)c2)n1 [Compound 158] | IC50: 1090 nM
42 |  |  | N=C(N)NC[C@H]1CC[C@H](CNC(=O)c2ccc(Cc3ccccc3)o2)CC1 [Compound 34] | IC50: > 10000 nM
43 | 57 | 58 | Cc1cc2c(cc1Cc1ccc(C(=O)NCCCN3CCOCC3)o1)C(C)(C)CCC2(C)C [drawing 978] | 
44 |  |  | COCCNC(=O)c1ccc(Cc2cc3c(cc2C)C(C)(C)CCC3(C)C)o1 [Compound 40] | IC50: 530 nM
45 |  |  | Cc1cc2c(cc1Cc1ccc(C(=O)NC(c3ccccc3)C(O)c3ccccc3)o1)C(C)(C)CCC2(C)C (stereo not drawn) [drawing 1073] | % Inhib. @ 1 uM hGnRH (1 uM): −11%; Repeats @ 1 uM hGnRH (repeat of % Inhib. at 1 uM): −8
46 |  |  | Cc1cc2c(cc1Cc1ccc(C(=O)NCc3cccc(CNc4cc(Cl)nc(N)n4)c3)o1)C(C)(C)CCC2(C)C [Compound 145] | IC50: 200 nM
47 | -11 | -7 | Cc1cc2c(cc1Cc1ccc(C(=O)N(C)CCc3ccccn3)o1)C(C)(C)CCC2(C)C | 
48 |  |  | COc1cc(C#N)c(NC(=O)c2ccc(Cc3cc4c(cc3C)C(C)(C)CCC4(C)C)o2)cc1OC [Compound 343] | remaining activity at 10 µM (1 h): 33%
49 |  |  | Cc1cc2c(cc1Cc1ccc(C(=O)NC3CCCc4ccccc43)o1)C(C)(C)CCC2(C)C (stereo not drawn) [drawing 1150] | % Inhib. @ 1 uM hGnRH (1 uM): 16%; Repeats @ 1 uM hGnRH (repeat of % Inhib. at 1 uM): 32
50 | 2 | 4 | Cc1cc2c(cc1Cc1ccc(C(=O)NC(C#N)c3ccc(F)cc3)o1)C(C)(C)CCC2(C)C (stereo not drawn) | 
51 | 68 | 68 | Cc1cc2c(cc1Cc1ccc(C(=O)NCc3ccc(Cl)cc3)o1)C(C)(C)CCC2(C)C [drawing 1091] | 
52 |  |  | CCCc1nc(NC(=O)c2ccc(Cc3cc4c(cc3C)C(C)(C)CCC4(C)C)o2)ncc1C(=O)OCC [Compound 198] | insolubility remark in hGnRH IC50 cell (binding assay conditions): Insol. >3 uM; IC50: 780 nM
53 |  |  | Cc1cc2c(cc1Cc1ccc(C(=O)Nc3ccc(O)c(Cl)c3)o1)C(C)(C)CCC2(C)C [Compound 380] | remaining activity at 10 µM (1 h): 29%
54 |  |  | Cc1cc2c(cc1Cc1ccc(C(=O)Nc3ccc4[nH]ncc4c3)o1)C(C)(C)CCC2(C)C [Compound 383] | remaining activity at 10 µM (1 h): 7%
55 | 77 | 79 | Cc1ccc(CNC(=O)c2ccc(Cc3cc4c(cc3C)C(C)(C)CCC4(C)C)o2)cc1C [drawing 1191] | 
56 | 47 | 52 | COc1ccc(CCNC(=O)c2ccc(Cc3cc4c(cc3C)C(C)(C)CCC4(C)C)o2)cc1OC [drawing 993] | 
57 | -3 | 2 | COc1cccc(OC)c1CNC(=O)c1ccc(Cc2cc3c(cc2C)C(C)(C)CCC3(C)C)o1 | 
58 |  |  | Cc1cc2c(cc1Cc1ccc(C(=O)NC(C)CCc3ccccc3)o1)C(C)(C)CCC2(C)C (stereo not drawn) [Compound 423] | remaining activity at 1 µM (1 h): 49%
59 | 69 | 71 | Cc1cc2c(cc1Cc1ccc(C(=O)NCc3ccc(F)cc3)o1)C(C)(C)CCC2(C)C [drawing 1135] | 
